Laboratory results taken from PubChem BioAssay (NCI).
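Values below derive from 48-hour exposures of cells grown in 96-well plates, with endpoints linearly interpolated between the two concentrations bracketing the appropriate inhibition level. Definition used: TGI = concentration required for complete inhibition of growth.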

Key:
Test in all cases: NCI tumour cell line growth inhibition, 48 h
DMS 273 small cell lung = test system: DMS 273 small cell lung
OVCAR-8 ovarian = test system: OVCAR-8 ovarian
SNB-19 CNS = test system: SNB-19 CNS
OVCAR-3 ovarian = test system: OVCAR-3 ovarian
SNB-75 CNS = test system: SNB-75 CNS
SK-MEL-5 melanoma = test system: SK-MEL-5 melanoma
DMS 114 small cell lung = test system: DMS 114 small cell lung
HOP-92 NSCLC = test system: HOP-92 NSCLC
EKVX NSCLC = test system: EKVX NSCLC
LXFL 529 NSCLC = test system: LXFL 529 NSCLC
HOP-18 NSCLC = test system: HOP-18 NSCLC
HT29 colon = test system: HT29 colon
NCI-H23 lung = test system: NCI-H23 lung
SF-295 CNS = test system: SF-295 CNS
RXF 393 renal = test system: RXF 393 renal
K-562 leukemia = test system: K-562 leukemia
M14 melanoma = test system: M14 melanoma
NCI-H226 lung = test system: NCI-H226 lung
RPMI-8226 leukemia = test system: RPMI-8226 leukemia
SK-MEL-2 melanoma = test system: SK-MEL-2 melanoma
LOX IMVI melanoma = test system: LOX IMVI melanoma
TK-10 renal = test system: TK-10 renal
KM20L2 colon = test system: KM20L2 colon
UO-31 renal = test system: UO-31 renal
SK-MEL-28 melanoma = test system: SK-MEL-28 melanoma
UACC-62 melanoma = test system: UACC-62 melanoma
HCT-116 colon = test system: HCT-116 colon
ACHN renal = test system: ACHN renal
CAKI-1 renal = test system: CAKI-1 renal
NCI-H460 lung = test system: NCI-H460 lung
SK-OV-3 ovarian = test system: SK-OV-3 ovarian
U251 CNS = test system: U251 CNS
SW-620 colon = test system: SW-620 colon
A498 renal = test system: A498 renal
DLD-1 colon = test system: DLD-1 colon
COLO 205 colon = test system: COLO 205 colon
M19-MEL melanoma = test system: M19-MEL melanoma
SN12C renal = test system: SN12C renal
MOLT-4 leukemia = test system: MOLT-4 leukemia
NCI-H522 lung = test system: NCI-H522 lung
IGROV1 ovarian = test system: IGROV1 ovarian
SF-268 CNS = test system: SF-268 CNS
OVCAR-4 ovarian = test system: OVCAR-4 ovarian
UACC-257 melanoma = test system: UACC-257 melanoma
MALME-3M melanoma = test system: MALME-3M melanoma
KM12 colon = test system: KM12 colon
HCC-2998 colon = test system: HCC-2998 colon
SF-539 CNS = test system: SF-539 CNS
786-0 renal = test system: 786-0 renal
HCT-15 colon = test system: HCT-15 colon
SNB-78 CNS = test system: SNB-78 CNS
HL-60(TB) leukemia = test system: HL-60(TB) leukemia
A549 NSCLC = test system: A549 NSCLC
OVCAR-5 ovarian = test system: OVCAR-5 ovarian
HOP-62 NSCLC = test system: HOP-62 NSCLC
PC-3 prostate = test system: PC-3 prostate
MDA-MB-435 = test system: MDA-MB-435
MCF7 breast = test system: MCF7 breast
BT-549 breast = test system: BT-549 breast
T-47D breast = test system: T-47D breast
CCRF-CEM leukemia = test system: CCRF-CEM leukemia
MDA-N = test system: MDA-N
DU-145 prostate = test system: DU-145 prostate
NCI/ADR-RES ovarian = test system: NCI/ADR-RES ovarian
HS 578T breast = test system: HS 578T breast
MDA-MB-231 breast = test system: MDA-MB-231 breast
SR leukemia = test system: SR leukemia

How did the TGI (DMS 273 small cell lung) turn out when `CCOc1cccc2sc(N)nc12` was run?
Its TGI is greater than 100 µM.

What about the TGI (OVCAR-8 ovarian) of the same compound?
The TGI was greater than 100 µM.

And the TGI (SNB-19 CNS)?
The TGI was greater than 100 µM.

What about the TGI (OVCAR-3 ovarian) of the same compound?
The TGI was greater than 100 µM.

What about the TGI (SNB-75 CNS) of the same compound?
Its TGI is greater than 100 µM.

And the TGI (SK-MEL-5 melanoma)?
Its TGI is greater than 100 µM.

What about the TGI (DMS 114 small cell lung) of the same compound?
The TGI was greater than 100 µM.

And the TGI (HOP-92 NSCLC)?
Its TGI is greater than 100 µM.

What about the TGI (EKVX NSCLC) of the same compound?
Its TGI is greater than 100 µM.

What about the TGI (LXFL 529 NSCLC) of the same compound?
The TGI was greater than 100 µM.

And the TGI (HOP-18 NSCLC)?
Its TGI is greater than 100 µM.

And the TGI (HT29 colon)?
The TGI was greater than 100 µM.

And the TGI (NCI-H23 lung)?
The TGI was greater than 100 µM.

And the TGI (SF-295 CNS)?
The TGI was greater than 100 µM.

What about the TGI (RXF 393 renal) of the same compound?
The TGI was greater than 100 µM.

And the TGI (K-562 leukemia)?
Its TGI is greater than 100 µM.

What about the TGI (M14 melanoma) of the same compound?
The TGI was greater than 100 µM.

And the TGI (NCI-H226 lung)?
Its TGI is greater than 100 µM.

And the TGI (RPMI-8226 leukemia)?
The TGI was greater than 100 µM.

What about the TGI (SK-MEL-2 melanoma) of the same compound?
The TGI was greater than 100 µM.

What about the TGI (LOX IMVI melanoma) of the same compound?
Its TGI is greater than 100 µM.

And the TGI (TK-10 renal)?
Its TGI is greater than 100 µM.

And the TGI (KM20L2 colon)?
The TGI was greater than 100 µM.

What about the TGI (UO-31 renal) of the same compound?
The TGI was greater than 100 µM.

And the TGI (SK-MEL-28 melanoma)?
Its TGI is greater than 100 µM.

What about the TGI (UACC-62 melanoma) of the same compound?
The TGI was greater than 100 µM.

What about the TGI (HCT-116 colon) of the same compound?
The TGI was greater than 100 µM.

And the TGI (ACHN renal)?
Its TGI is greater than 100 µM.

And the TGI (CAKI-1 renal)?
Its TGI is greater than 100 µM.

And the TGI (NCI-H460 lung)?
Its TGI is greater than 100 µM.

And the TGI (SK-OV-3 ovarian)?
Its TGI is greater than 100 µM.

And the TGI (U251 CNS)?
Its TGI is greater than 100 µM.

And the TGI (SW-620 colon)?
The TGI was greater than 100 µM.

And the TGI (A498 renal)?
The TGI was greater than 100 µM.

What about the TGI (DLD-1 colon) of the same compound?
The TGI was greater than 100 µM.

And the TGI (COLO 205 colon)?
Its TGI is greater than 100 µM.

What about the TGI (M19-MEL melanoma) of the same compound?
The TGI was greater than 100 µM.

What about the TGI (SN12C renal) of the same compound?
Its TGI is greater than 100 µM.

What about the TGI (MOLT-4 leukemia) of the same compound?
Its TGI is greater than 100 µM.

What about the TGI (NCI-H522 lung) of the same compound?
Its TGI is greater than 100 µM.

And the TGI (IGROV1 ovarian)?
The TGI was greater than 100 µM.

And the TGI (SF-268 CNS)?
The TGI was greater than 100 µM.

What about the TGI (OVCAR-4 ovarian) of the same compound?
The TGI was greater than 100 µM.

What about the TGI (UACC-257 melanoma) of the same compound?
The TGI was greater than 100 µM.

And the TGI (MALME-3M melanoma)?
Its TGI is greater than 100 µM.

And the TGI (KM12 colon)?
The TGI was greater than 100 µM.

What about the TGI (HCC-2998 colon) of the same compound?
The TGI was greater than 100 µM.

And the TGI (SF-539 CNS)?
The TGI was greater than 100 µM.

And the TGI (786-0 renal)?
Its TGI is greater than 100 µM.

And the TGI (HCT-15 colon)?
Its TGI is greater than 100 µM.

What about the TGI (SNB-78 CNS) of the same compound?
Its TGI is greater than 100 µM.

What about the TGI (HL-60(TB) leukemia) of the same compound?
Its TGI is greater than 100 µM.

And the TGI (A549 NSCLC)?
Its TGI is greater than 100 µM.

What about the TGI (OVCAR-5 ovarian) of the same compound?
The TGI was greater than 100 µM.

What about the TGI (HOP-62 NSCLC) of the same compound?
The TGI was greater than 100 µM.

How did the TGI (OVCAR-8 ovarian) turn out when `O=c1[nH]c(=S)n(-c2cccc3ccccc23)c(O)c1/C=C1\C=Nc2ccccc21` was run?
Its TGI is 6.86 µM.

What about the TGI (PC-3 prostate) of the same compound?
Its TGI is 6.74 µM.

What about the TGI (SNB-19 CNS) of the same compound?
The TGI was 11.3 µM.

And the TGI (OVCAR-3 ovarian)?
Its TGI is 12.6 µM.

What about the TGI (SNB-75 CNS) of the same compound?
Its TGI is 6.42 µM.

What about the TGI (SK-MEL-5 melanoma) of the same compound?
Its TGI is 3.12 µM.

What about the TGI (HOP-92 NSCLC) of the same compound?
Its TGI is 4.85 µM.

What about the TGI (EKVX NSCLC) of the same compound?
The TGI was 5.38 µM.

What about the TGI (MDA-MB-435) of the same compound?
Its TGI is 6.69 µM.

And the TGI (MCF7 breast)?
The TGI was 7.19 µM.

And the TGI (HT29 colon)?
Its TGI is 5.03 µM.

And the TGI (NCI-H23 lung)?
Its TGI is 3.48 µM.

And the TGI (SF-295 CNS)?
The TGI was 10.3 µM.

What about the TGI (RXF 393 renal) of the same compound?
Its TGI is 3.43 µM.

And the TGI (K-562 leukemia)?
Its TGI is 7.11 µM.

What about the TGI (M14 melanoma) of the same compound?
Its TGI is 3.77 µM.

And the TGI (NCI-H226 lung)?
The TGI was 5.8 µM.

What about the TGI (BT-549 breast) of the same compound?
The TGI was 3.55 µM.

What about the TGI (RPMI-8226 leukemia) of the same compound?
Its TGI is 4.96 µM.

And the TGI (SK-MEL-2 melanoma)?
The TGI was 3.55 µM.

And the TGI (LOX IMVI melanoma)?
The TGI was 3.81 µM.

What about the TGI (TK-10 renal) of the same compound?
The TGI was 6.06 µM.

What about the TGI (UO-31 renal) of the same compound?
Its TGI is 4.93 µM.

And the TGI (SK-MEL-28 melanoma)?
Its TGI is 6.06 µM.

And the TGI (T-47D breast)?
The TGI was 19.3 µM.

And the TGI (UACC-62 melanoma)?
Its TGI is 3.26 µM.

What about the TGI (HCT-116 colon) of the same compound?
The TGI was 4.55 µM.

What about the TGI (ACHN renal) of the same compound?
The TGI was 5.73 µM.

What about the TGI (CAKI-1 renal) of the same compound?
Its TGI is 8.65 µM.

What about the TGI (NCI-H460 lung) of the same compound?
Its TGI is 5.38 µM.

And the TGI (SK-OV-3 ovarian)?
Its TGI is 14.5 µM.

And the TGI (U251 CNS)?
The TGI was 5.45 µM.

What about the TGI (SW-620 colon) of the same compound?
The TGI was 6.73 µM.

What about the TGI (A498 renal) of the same compound?
Its TGI is 4.25 µM.

And the TGI (COLO 205 colon)?
Its TGI is 3.4 µM.

And the TGI (SN12C renal)?
The TGI was 5.29 µM.

And the TGI (MOLT-4 leukemia)?
Its TGI is 5.02 µM.

And the TGI (NCI-H522 lung)?
Its TGI is 10.2 µM.

And the TGI (IGROV1 ovarian)?
The TGI was 4.76 µM.

What about the TGI (CCRF-CEM leukemia) of the same compound?
The TGI was 5.35 µM.

What about the TGI (SF-268 CNS) of the same compound?
Its TGI is 11.4 µM.

And the TGI (MDA-N)?
The TGI was 4.63 µM.

And the TGI (OVCAR-4 ovarian)?
The TGI was 7.42 µM.

What about the TGI (UACC-257 melanoma) of the same compound?
The TGI was 5.51 µM.

What about the TGI (DU-145 prostate) of the same compound?
Its TGI is 3.55 µM.

What about the TGI (MALME-3M melanoma) of the same compound?
Its TGI is 5.8 µM.

And the TGI (KM12 colon)?
Its TGI is 6.87 µM.

What about the TGI (NCI/ADR-RES ovarian) of the same compound?
Its TGI is 10.5 µM.

What about the TGI (HCC-2998 colon) of the same compound?
The TGI was 3.5 µM.

And the TGI (SF-539 CNS)?
The TGI was 5.38 µM.

And the TGI (786-0 renal)?
Its TGI is 3.55 µM.

What about the TGI (HCT-15 colon) of the same compound?
The TGI was 3.45 µM.

What about the TGI (HS 578T breast) of the same compound?
Its TGI is 58.8 µM.

What about the TGI (HL-60(TB) leukemia) of the same compound?
The TGI was 5.27 µM.

What about the TGI (MDA-MB-231 breast) of the same compound?
The TGI was 5.14 µM.

And the TGI (A549 NSCLC)?
The TGI was 20.6 µM.

And the TGI (SR leukemia)?
The TGI was 4.04 µM.

What about the TGI (OVCAR-5 ovarian) of the same compound?
Its TGI is 5.47 µM.

And the TGI (HOP-62 NSCLC)?
Its TGI is 10.7 µM.
